Measurements: EP0071175A2, “Phenylalkyloxirane-carboxylic acids, process for their preparation, their use and medicines containing them” (Byk Gulden Lomberg Chemische Fabrik GmbH, priority 1981, dated 1983)

Tests used:
[1] = system: nüchterner, stoffwechselgesunder Ratten; experiment: Blood glucose determination after single oral application; type: in vivo, Sprague-Dawley-Ratten; conditions: maximal lowering vs. control group within 6 hours after single oral application of 0,6 mmol substance/kg body weight; fasted male rats
Source text: (§1) In Tabelle I werden Untersuchungen des Einflusses von Vertretern der erfindungsgemäßen Verbindungen auf die Blutglucosekonzentration nüchterner, stoffwechselgesunder Ratten wiedergegeben. Spalte A gibt jeweils die maximale Senkung der Blutglucosekonzentration nüchterner Ratten (in % bezogen auf die Kontrollgruppe) an, die im Laufe von 6 Stunden nach einmaliger oraler Applikation von 0,6 mmöl Substanz/kg Körpergewicht be-, obachtet wird. In der Spalte B werden Daten zur akuten Toxizität (LD50; Maus p.o.) wiedergegeben.
1. Blutglucosebestimmung nach einmaliger oraler Applikation
Zur Verwendung kommen junge männliche Sprague-Dawley-Ratten (Körpergewicht 150-200 g). Die Haltung der Tiere (6 Tiere pro Dosis) erfolgt in Makrolon-Käfigen mit bis zu 4 Tieren pro Käfig (Raumtemperatur 23 °C, rel. Luftfeuchtigkeit 55 %, fester Tag/Nacht-Rythmus (12/12=h) Standarddiät Altromin®). Den Ratten wird 18 Stunden vor der 1. Blutentnahme das Futter entzogen. Wasseraufnahme erfolgt ad libitum. Blutentnahmen erfolgen unmittelbar vor und 2, 4 und 6 Stunden nach Substanzgabe durch Punktion aus dem retroorbitalen Plexus. Nach Enteiweißung mit Perchlorsäure wird die Blutglucosebestimmung mittels der bei Banauch et.al. [J.Clin.Chem.Clin.Biochem. 13, 101(1975)] beschriebener Glucose-Dehydrogenase-Methode mit Hilfe von kommerziellen Reagentien durchgeführt. Zum Vergleich wird jeweils eine mit reinem Lösungsmittel behandelte Kontrollgruppe mituntersucht (10 Tiere pro Kontrollgruppe).

[2] = in vivo; conditions: mouse, po, read-out: Akute Toxizität Maus p.o. LD50
Source text: as §1
2. Bestimmung der Toxizität .
Die Toxizitätsuntersuchungen werden an weiblichen NMRI-Mäusen (Körpergewicht 22-26 g) durchgeführt. Die Tiere (5 Tiere pro Dosis) erhalten 18 Stunden vor der Behandlung das Futter (Altromin®) auf 50 g/50 Tiere reduziert und Wasser ad libitum. Verschiedene Dosen der Substanzen werden oral mittels Schlundsonde verabreicht (Volumen 10 ml/kg). Die Beobachtungsdauer beträgt 7 Tage.

Structure (SMILES) | Senkung der Blut-glucosekonzentration (in %) in vivo [1] [%] | LD50 [2] [mg/kg]
CCOC(=O)C1(CCCC(C)Cc2ccc(Cl)cc2)CO1 (stereo not shown) [compound 5, 2-[5-(4-Chlorphenyl)-4-methylpentyl]-oxiran-2-carbonsäure-ethylester] | 70 | ~500
CCOC(=O)C1(CCCC(C)Cc2ccccc2)CO1 (stereo not shown) [compound 3, 2-(4-Methyl-5-phenylpentyl)-oxiran-2-carbonsäureethylester] | 45 | > 1000
CCOC(=O)C1(CC(CC)CCCc2ccccc2)CO1 (stereo not shown) [compound 4, 2-(2-Ethyl-5-phenylpentyl)-oxiran-2-carbonsäureethylester] | 25 | 
CCCCNC(=N)NC(=N)N [compound 1, Buformin, reference compound] | 8 | 
CCOC(=O)C1(CCCCC(C)c2ccccc2)CO1 (stereo not shown) [compound 7, 2-(5-Methyl-5-phenylpentyl)-oxiran-2-carbonsäureethylester] | 22 | 
[H]/N=C(/N)N/C(=N/[H])NCCc1ccccc1 [compound 2, Phenformin, reference compound] | 6 | 
CCOC(=O)C1(CCCC(C)CCCc2ccccc2)CO1 (stereo not shown) [compound 6, 2-(4-Methyl-7-phenylheptyl)-oxiran-2-carbonsäureethylester] | 35 | > 500
